Calls of active or inactive are those of the source.
Tests used:
Assay type in all cases: functional
[1] = biological target: T1, Sentrin-specific protease 7 (Homo sapiens, UniProt Q9BQF6);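 also: Luminescence-based dose-response confirmation of ultra-high-throughput screening hits, measuring inhibition of SENP7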
T1 sequence (Q9BQF6 whole entry): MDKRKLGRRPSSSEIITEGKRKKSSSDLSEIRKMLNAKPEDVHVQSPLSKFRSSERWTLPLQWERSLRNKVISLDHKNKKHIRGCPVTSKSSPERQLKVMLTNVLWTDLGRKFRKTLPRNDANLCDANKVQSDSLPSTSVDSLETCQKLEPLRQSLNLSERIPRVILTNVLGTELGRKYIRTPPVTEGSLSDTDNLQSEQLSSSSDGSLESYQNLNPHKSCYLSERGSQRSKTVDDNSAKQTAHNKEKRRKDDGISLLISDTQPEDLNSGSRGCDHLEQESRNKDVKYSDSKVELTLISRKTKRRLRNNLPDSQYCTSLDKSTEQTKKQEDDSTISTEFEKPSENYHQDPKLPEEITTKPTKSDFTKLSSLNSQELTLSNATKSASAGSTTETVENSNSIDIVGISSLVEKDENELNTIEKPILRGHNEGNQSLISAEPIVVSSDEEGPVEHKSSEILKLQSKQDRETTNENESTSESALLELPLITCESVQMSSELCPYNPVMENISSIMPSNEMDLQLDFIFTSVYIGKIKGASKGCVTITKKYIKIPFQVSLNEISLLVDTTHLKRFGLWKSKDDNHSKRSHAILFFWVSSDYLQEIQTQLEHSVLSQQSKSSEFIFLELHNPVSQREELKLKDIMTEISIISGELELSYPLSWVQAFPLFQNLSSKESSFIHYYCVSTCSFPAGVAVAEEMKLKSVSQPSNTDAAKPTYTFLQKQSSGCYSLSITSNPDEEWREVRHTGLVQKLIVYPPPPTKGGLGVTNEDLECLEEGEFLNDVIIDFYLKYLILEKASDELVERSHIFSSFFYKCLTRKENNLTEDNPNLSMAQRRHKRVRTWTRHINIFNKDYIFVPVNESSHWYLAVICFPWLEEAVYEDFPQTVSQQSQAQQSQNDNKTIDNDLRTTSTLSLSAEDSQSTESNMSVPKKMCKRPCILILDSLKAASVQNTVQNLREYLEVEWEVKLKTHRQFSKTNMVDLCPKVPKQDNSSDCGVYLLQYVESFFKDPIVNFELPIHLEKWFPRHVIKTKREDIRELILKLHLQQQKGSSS

[2] = biological target: T2, Sentrin-specific protease 6 (Homo sapiens, UniProt Q9GZR1);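 also: Luminescence-based dose-response confirmatory assay of SENP6 inhibition, following up an ultra-high-throughput screen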
T2 sequence (Q9GZR1 whole entry): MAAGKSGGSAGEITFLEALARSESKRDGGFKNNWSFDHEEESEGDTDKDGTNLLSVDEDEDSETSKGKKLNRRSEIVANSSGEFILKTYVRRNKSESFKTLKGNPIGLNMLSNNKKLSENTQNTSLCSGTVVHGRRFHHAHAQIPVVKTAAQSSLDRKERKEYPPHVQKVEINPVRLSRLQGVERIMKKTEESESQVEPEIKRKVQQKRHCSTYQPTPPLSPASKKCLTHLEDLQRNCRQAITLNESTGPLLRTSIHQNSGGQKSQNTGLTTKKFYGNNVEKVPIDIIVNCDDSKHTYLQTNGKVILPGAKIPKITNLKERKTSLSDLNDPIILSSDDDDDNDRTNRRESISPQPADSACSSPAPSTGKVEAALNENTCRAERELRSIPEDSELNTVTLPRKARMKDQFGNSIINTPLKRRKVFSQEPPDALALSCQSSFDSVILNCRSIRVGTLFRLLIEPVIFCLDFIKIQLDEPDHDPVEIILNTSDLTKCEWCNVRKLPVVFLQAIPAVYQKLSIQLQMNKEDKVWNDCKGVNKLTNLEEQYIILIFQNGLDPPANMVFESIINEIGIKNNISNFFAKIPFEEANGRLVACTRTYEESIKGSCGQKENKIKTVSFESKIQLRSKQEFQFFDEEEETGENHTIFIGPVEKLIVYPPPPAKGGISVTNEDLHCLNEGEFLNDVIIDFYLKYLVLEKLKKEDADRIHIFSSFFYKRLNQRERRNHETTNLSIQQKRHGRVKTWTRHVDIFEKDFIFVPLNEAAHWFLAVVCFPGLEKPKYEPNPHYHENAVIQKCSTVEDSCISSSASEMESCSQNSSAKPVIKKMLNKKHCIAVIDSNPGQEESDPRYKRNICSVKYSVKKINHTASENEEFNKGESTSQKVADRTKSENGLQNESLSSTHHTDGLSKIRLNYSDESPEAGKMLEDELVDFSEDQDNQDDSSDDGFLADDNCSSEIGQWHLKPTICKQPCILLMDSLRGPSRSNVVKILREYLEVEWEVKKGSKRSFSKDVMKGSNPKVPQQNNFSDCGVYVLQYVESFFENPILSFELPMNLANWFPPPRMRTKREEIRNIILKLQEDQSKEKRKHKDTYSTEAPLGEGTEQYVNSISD

[3] = biological target: T3, Microphthalmia-associated transcription factor (Homo sapiens, UniProt O75030); assay: reducers of TRPM1 reporter luminescence, concentration series – cell-based, SK-MEL-5, cherry-picked, set 3, MITF inhibitor project, dose response (AID 493073);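 also: SK-MEL-5 melanoma cells with luciferase driven by the MITF target TRPM1 promoter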
T3 sequence (O75030 whole entry): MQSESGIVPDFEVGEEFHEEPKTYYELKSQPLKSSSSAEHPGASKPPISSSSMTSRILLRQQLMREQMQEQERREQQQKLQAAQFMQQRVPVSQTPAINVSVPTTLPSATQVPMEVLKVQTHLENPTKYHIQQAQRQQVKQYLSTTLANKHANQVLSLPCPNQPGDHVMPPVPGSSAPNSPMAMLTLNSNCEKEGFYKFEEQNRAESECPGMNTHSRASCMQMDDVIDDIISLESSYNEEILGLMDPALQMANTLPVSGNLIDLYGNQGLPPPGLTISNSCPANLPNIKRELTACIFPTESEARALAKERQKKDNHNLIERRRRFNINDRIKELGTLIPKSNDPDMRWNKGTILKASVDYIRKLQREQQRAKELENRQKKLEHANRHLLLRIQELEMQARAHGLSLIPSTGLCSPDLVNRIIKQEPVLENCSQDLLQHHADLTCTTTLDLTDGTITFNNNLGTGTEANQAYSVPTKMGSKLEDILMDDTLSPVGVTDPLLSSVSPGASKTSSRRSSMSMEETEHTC

Genome polyprotein = Genome polyprotein (dengue virus type 2, UniProt P29990); assay: flavivirus cap methylation enzyme inhibition – biochemical, confirmation dose response, primary screen (AID 588689)
Genome polyprotein, sequence (P29990 2492-3391 limits assumed): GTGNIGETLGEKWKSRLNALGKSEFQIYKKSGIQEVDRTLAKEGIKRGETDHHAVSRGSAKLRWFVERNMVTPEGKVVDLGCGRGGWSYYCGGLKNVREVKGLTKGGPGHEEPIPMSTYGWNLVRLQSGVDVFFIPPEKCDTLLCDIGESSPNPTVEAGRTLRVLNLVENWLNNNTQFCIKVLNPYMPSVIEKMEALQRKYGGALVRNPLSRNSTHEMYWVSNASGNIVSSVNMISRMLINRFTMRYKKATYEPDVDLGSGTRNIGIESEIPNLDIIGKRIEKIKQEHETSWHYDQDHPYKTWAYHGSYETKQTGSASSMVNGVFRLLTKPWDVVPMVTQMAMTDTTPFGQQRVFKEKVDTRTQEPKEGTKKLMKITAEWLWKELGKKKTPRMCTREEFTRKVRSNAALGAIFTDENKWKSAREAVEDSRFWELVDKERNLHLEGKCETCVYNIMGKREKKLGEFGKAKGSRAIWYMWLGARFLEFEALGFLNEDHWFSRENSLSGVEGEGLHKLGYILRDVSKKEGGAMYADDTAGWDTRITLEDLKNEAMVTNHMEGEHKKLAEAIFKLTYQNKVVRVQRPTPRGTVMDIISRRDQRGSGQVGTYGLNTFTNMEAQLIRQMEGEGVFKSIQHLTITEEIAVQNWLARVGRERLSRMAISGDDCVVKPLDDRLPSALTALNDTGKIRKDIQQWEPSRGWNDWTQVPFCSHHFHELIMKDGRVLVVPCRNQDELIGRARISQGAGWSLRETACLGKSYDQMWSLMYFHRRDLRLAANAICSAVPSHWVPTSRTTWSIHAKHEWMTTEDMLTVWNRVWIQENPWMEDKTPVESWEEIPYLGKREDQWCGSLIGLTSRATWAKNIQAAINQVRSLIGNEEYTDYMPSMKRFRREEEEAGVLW

[4] = biological target: Induced myeloid leukemia cell differentiation protein Mcl-1 (Homo sapiens, UniProt Q07820)
Induced myeloid leukemia cell differentiation protein Mcl-1, sequence (Q07820 whole entry): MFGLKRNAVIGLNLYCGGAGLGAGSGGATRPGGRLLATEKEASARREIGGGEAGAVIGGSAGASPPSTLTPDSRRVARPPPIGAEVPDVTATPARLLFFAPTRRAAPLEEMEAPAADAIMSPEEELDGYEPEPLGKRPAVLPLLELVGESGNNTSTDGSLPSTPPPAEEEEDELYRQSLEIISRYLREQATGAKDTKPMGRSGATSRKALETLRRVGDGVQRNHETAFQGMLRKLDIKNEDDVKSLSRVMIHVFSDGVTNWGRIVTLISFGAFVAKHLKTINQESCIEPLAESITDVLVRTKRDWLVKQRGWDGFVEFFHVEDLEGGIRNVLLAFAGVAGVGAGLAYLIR

Vero = assay: viability of Vero cells under compound – cytotoxicity control for flavivirus capping enzyme inhibitors (AID 588742); settings: Chlorocebus sabaeus
A-375 = assay: MITF: Counter assay: A375 proliferation Measured in Cell-Based System Using Plate Reader - 2084-03_Inhibitor_Dose_DryPowder_Activity. [Related pubchem assays (depositor defined):AID488944]; settings: Homo sapiens
INS1 = assay: INS-1E survival protection against cytokine death – cell-based, luminescence, retest, dose response (AID 449756); settings: Rattus norvegicus;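 also: cell death triggered by IL-1 beta plus TNF-alpha plus IFN-gamma mixture; protective hits raise ATP signal compared with cytokine alone wells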

CC(C)=CCC1=C(OCC(=O)O)C(=O)c2ccccc2C1=O
active: IC50 [1] 3.97 µM | IC50 [2] 2.53 µM

Cc1cccc(NC2=C(NC(=O)c3ccccc3)C(=O)c3ccccc3C2=O)c1
active: AC50 [3] 9.99 µM | IC50 (Genome polyprotein) 58.4 µM | IC50 [4] 2.86 µM | CC50 (Vero) > 40 µM | AC50 (A-375) 34 µM | AC50 (INS1) 7.52 µM
